Test results taken from patent US8710178B2, “Macrocyclic cysteine protease inhibitors and compositions thereof” (Lincoln University, priority 2006, dated 2014).
Where two headings read alike, the source gives them in different places. Blank lines part the entries; values can stand above or below the compound they belong to.

How the values were obtained:
[1] = rcm bond, 1,1,2-trichloroethane
calpain II (m calpain) = target: T1, calpain II (m calpain) (Homo sapiens, UniProt P17655); experiment: BODIPY-casein fluorescence-based enzyme assay, calpain II / m-calpain; type: biochemical; details: BODIPY-casein substrate
T1 sequence (P17655 1-700): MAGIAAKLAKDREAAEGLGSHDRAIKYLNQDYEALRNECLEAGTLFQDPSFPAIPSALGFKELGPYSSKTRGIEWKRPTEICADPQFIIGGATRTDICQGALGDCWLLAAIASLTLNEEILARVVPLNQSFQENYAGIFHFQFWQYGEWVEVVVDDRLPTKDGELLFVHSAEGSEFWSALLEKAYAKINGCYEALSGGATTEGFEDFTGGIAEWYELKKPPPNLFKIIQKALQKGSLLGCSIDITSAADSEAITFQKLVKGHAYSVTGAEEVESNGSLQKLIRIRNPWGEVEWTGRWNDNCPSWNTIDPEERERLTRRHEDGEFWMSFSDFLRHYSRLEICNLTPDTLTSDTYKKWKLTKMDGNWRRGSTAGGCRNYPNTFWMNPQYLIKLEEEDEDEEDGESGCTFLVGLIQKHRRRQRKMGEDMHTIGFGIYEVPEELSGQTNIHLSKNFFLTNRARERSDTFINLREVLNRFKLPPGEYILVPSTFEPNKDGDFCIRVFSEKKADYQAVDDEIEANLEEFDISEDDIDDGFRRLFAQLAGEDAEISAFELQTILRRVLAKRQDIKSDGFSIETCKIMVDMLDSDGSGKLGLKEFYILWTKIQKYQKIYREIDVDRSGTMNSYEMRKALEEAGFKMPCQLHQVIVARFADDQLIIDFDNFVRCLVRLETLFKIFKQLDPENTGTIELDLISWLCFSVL
T1 sequence (P04632 1-268 partner): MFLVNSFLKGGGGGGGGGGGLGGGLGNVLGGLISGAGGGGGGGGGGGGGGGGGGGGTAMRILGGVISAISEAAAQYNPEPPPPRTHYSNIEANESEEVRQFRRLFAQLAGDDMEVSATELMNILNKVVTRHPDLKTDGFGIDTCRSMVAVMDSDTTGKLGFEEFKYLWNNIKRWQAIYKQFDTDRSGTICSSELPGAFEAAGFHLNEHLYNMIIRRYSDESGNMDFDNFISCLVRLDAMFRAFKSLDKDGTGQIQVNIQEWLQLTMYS
Method: (§1) The inhibitors were assayed against several enzymes using a BODIPY-casein substrate in the fluorescence-based assay procedure of V. F. Thompson, S. Saldana, J. Cong and D. E. Goll, Anal. Biochem. 2000, 279, 170.
A number of the compounds were assayed against m-calpain using a BODIPY-casein substrate in the fluorescence-based assay procedure of V. F. Thompson, S. Saldana, J. Cong and D. E. Goll, Anal. Biochem. 2000, 279, 170.

calpain I (μ calpain) = target: T2, calpain I (μ calpain) (Homo sapiens, UniProt P07384); experiment: BODIPY-casein fluorescence-based enzyme assay, calpain I; type: biochemical; details: BODIPY-casein substrate
T2 sequence (P07384 1-714): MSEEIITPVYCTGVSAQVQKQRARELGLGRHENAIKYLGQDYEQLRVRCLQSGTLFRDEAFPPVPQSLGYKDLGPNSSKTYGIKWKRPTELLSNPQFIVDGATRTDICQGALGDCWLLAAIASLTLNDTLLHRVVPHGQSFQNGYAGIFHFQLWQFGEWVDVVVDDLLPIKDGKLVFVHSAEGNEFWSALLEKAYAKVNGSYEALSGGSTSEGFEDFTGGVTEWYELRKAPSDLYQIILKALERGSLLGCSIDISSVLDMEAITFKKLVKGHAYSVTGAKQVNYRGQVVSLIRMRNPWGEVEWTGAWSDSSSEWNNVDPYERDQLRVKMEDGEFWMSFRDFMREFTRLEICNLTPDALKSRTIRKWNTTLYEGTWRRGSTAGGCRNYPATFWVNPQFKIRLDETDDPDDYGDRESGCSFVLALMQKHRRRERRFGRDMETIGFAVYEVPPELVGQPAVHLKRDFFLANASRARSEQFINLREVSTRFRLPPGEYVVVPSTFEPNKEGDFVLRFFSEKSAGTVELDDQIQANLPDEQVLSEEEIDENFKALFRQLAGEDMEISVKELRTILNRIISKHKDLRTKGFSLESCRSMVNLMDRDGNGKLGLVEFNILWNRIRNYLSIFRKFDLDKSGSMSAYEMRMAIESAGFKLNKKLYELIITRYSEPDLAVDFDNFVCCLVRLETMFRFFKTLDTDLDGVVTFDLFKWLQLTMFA
T2 sequence (P04632 1-268 partner): T1 sequence (P04632 1-268 partner)

papain = target: T3, papain (Carica papaya, UniProt P00784); experiment: BODIPY-casein fluorescence-based enzyme assay, papain; type: biochemical; details: BODIPY-casein substrate
T3 sequence (P00784 134-345): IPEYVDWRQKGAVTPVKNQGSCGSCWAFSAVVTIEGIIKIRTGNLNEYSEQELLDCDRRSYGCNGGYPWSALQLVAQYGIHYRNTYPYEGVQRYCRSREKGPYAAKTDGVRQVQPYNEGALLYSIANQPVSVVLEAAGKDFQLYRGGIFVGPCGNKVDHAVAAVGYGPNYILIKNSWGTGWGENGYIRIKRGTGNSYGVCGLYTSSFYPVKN
Method: as §1

cathepsin B = cathepsin B (Homo sapiens, UniProt P07858); experiment: BODIPY-casein fluorescence-based enzyme assay, cathepsin B; type: biochemical; details: BODIPY-casein substrate
α-chymotrypsin = α-chymotrypsin (Bos taurus, UniProt P00766); experiment: BODIPY-casein fluorescence-based enzyme assay, α-chymotrypsin; type: biochemical; details: BODIPY-casein substrate
[2] = 19-membered ring, Grubbs II (3 x 0.10 equiv), microwave, 10.0 mM
[3] = Table 3, read-out: IC50 against m-calpain
[4] = Table 2, read-out: IC50 calpain II (m calpain)

Compound: (E/Z)-12S-tert-Butoxycarbonylamino-9S-isobutyl-8,11-dioxo-2-oxa-7,10-diazabicyclo[12.2.2]octadeca-1(17),4,14(18),15-tetraene-6S-carboxylic acid methyl ester
ring closure, isolated yield ([1]; 16-membered ring, Grubbs II (3 x 0.10 equiv), microwave, 10.0 mM): 48%

Compound: (E/Z)-15S-tert-Butoxycarbonylamino-12S-isobutyl-11,14-dioxo-2,7-dioxa-10,13-diaza-bicyclo[15.2.2]heneicosa-1(20),4,17(21),18-tetraene-9R-carboxylic acid methyl ester
ring closure, isolated yield [1, 2]: 33%

Compound: (E/Z)-(9R,12S,15S)-15-tert-Butoxycarbonylamino-12-isopropyl-11,14-dioxo-2-oxa-7-thia-10,13-diaza-bicyclo[15.2.2]henicosa-1(20),4,17(21),18-tetraene-9-carboxylic acid methyl ester
ring closure, isolated yield ([1]; 19-membered ring, Grubbs II, 17.3 mM): 72%

Compound: COC(=O)[C@@H]1C/C=C/COc2ccc(cc2)C[C@H](NC(=O)OC(C)(C)C)C(=O)N[C@@H](C(C)C)C(=O)N1
ring closure, isolated yield ([1]; 17-membered ring, Grubbs II, 10.0 mM): 12%

Compound: CC(C)C[C@@H]1NC(=O)[C@@H](NC(=O)OCc2ccccc2)Cc2ccc(cc2)OCCCCC[C@@H](CO)NC1=O [Compound 27]
IC50 (calpain I (μ calpain)): 1.34 µM
IC50 (papain): > 50 µM
IC50 (cathepsin B): 1.1 µM
IC50 (α-chymotrypsin): > 50 µM
IC50 (calpain II (m calpain); [4]): 1.1 µM
IC50 (calpain II (m calpain); [3]): 1.34 µM

Compound: (E/Z)-(9S,12S,15S)-15-tert-Butoxycarbonylamino-12-isopropyl-11,14-dioxo-2,7-dioxa-10,13-diaza-bicyclo[15.2.2]henicosa-1(20),4,17(21),18-tetraene-9-carboxylic acid methyl ester
ring closure, isolated yield ([1]; 19-membered ring, Grubbs II, 12.6 mM): 23%

Compound: (E/Z)-15S-tert-Butoxycarbonylamino-12S-isobutyl-11,14-dioxo-2-oxa-2-thia-10,13-diaza-bicyclo[15.2.2]heneicosa-1(20),4,17(21),18-tetraene-9R-carboxylic acid methyl ester
ring closure, isolated yield [1, 2]: 40%

Compound: (E/Z)-(7S,10S,13S)-13-(4-Fluoro-benzenesulfonylamino)-10-isobutyl-9,12-dioxo-2-oxa-8,11-diaza-bicyclo[13.2.2]nonadeca-1(18),4,15(19),16-tetraene-7-carboxylic acid methyl ester
ring closure, isolated yield ([1]; 17-membered ring, Grubbs II/Cy2BCl, 10.3 mM): 63%

Compound: CC(C)[C@@H]1NC(=O)[C@@H](NS(=O)(=O)c2ccc(F)cc2)Cc2ccc(cc2)OCCCCSC[C@@H](C=O)NC1=O [Compound 58, 4-Fluoro-N-((9R,12S,15S)-9-formyl-12-isopropyl-11,14-dioxo-2-oxa-7-thia-10,13-diaza-bicyclo[15.2.2]henicosa-1(20),17(21),18-trien-15-yl)-benzenesulfonamide]
IC50 (calpain II (m calpain); [3]): 2.4 µM

The remaining lines, values ahead:

IC50 (calpain II (m calpain); [3]): 0.04 µM
Compound: CC(C)[C@@H]1NC(=O)[C@@H](NC(=O)OCc2ccccc2)Cc2ccc(cc2)OCCCC[C@@H](C=O)NC1=O [Compound 50]

IC50 (calpain II (m calpain); [3]): 0.045 µM
Compound: CC(C)C[C@@H]1NC(=O)[C@@H](NS(=O)(=O)c2ccc(F)cc2)Cc2ccc(cc2)OCCCC[C@@H](C=O)NC1=O [Compound 17, 4-Fluoro-N-((7S,10S,13S)-7-formyl-10-isobutyl-9,12-dioxo-2-oxa-8,1′-diaza-bicyclo[13.2.2]-nonadeca-1(18),15(19),16-trien-13-yl)-benzenesulfonamide]

IC50 (calpain I (μ calpain)): 0.17 µM
IC50 (papain): > 50 µM
IC50 (cathepsin B): 0.77 µM
IC50 (α-chymotrypsin): > 50 µM
IC50 (calpain II (m calpain); [4]): 0.18 µM
IC50 (calpain II (m calpain); [3]): 0.18 µM
Compound: CC(C)C[C@@H]1NC(=O)[C@@H](NC(=O)OCc2ccccc2)Cc2ccc(cc2)OCCCCC[C@@H](C=O)NC1=O [Compound 28]

IC50 (calpain II (m calpain); [3]): 3.71 µM
Compound: CC(C)[C@@H]1NC(=O)[C@@H](NS(=O)(=O)c2ccc(F)cc2)Cc2ccc(cc2)OCCC[C@@H](C=O)NC1=O [Compound 69, 4-Fluoro-N-((6S,9S,12S)-6-formyl-9-isopropyl-8,11-dioxo-2-oxa-7,10-diaza-bicyclo[12.2.2]octadeca-1(17),14(18),15-trien-12-yl)-benzenesulfonamide]

IC50 (calpain I (μ calpain)): 35 µM
IC50 (papain): 12 µM
IC50 (cathepsin B): 2.4 µM
IC50 (α-chymotrypsin): > 50 µM
IC50 (calpain II (m calpain); [4]): 8.9 µM
Compound: CC(C)C[C@@H]1NC(=O)[C@@H](NC(=O)OCc2ccccc2)Cc2ccc(cc2)OCCCC[C@@H](C(O)C#N)NC1=O (stereo partly drawn) [Compound 80, [7-(R,S)-(cyanohydroxymethyl)-10S-isobutyl-9,12-dioxo-2-oxa-8,11-diaza-bicyclo-[13.2.2]nonadeca-1(18),15(19),16-trien-13S-yl]carbamic acid benzyl ester]

IC50 (calpain II (m calpain); [3]): 0.69 µM
Compound: CC(C)[C@@H]1NC(=O)[C@@H](NC(=O)c2ccc[nH]2)Cc2ccc(cc2)OCCCC[C@@H](C=O)NC1=O [Compound 52, 1H-Pyrrole-2-carboxylic acid ((7S,10S,13S)-7-formyl-10-isopropyl-9,12-dioxo-2-oxa-8,11-diaza-bicyclo[13.2.2]nonadeca-1(18),15(19),16-trien-13-yl)-amide]

IC50 (calpain II (m calpain); [3]): 0.295 µM
Compound: CC(C)[C@@H]1NC(=O)[C@@H](NC(=O)OCc2ccccc2)Cc2ccc(cc2)OCCCCSC[C@@H](C=O)NC1=O [Compound 36]

IC50 (calpain II (m calpain); [3]): 0.95 µM
Compound: CC(C)[C@@H]1NC(=O)[C@@H](NS(C)(=O)=O)Cc2ccc(cc2)OCCCC[C@@H](C=O)NC1=O [Compound 56, N-((7S,10S,13S)-7-Formyl-10-isopropyl-9,12-dioxo-2-oxa-8,11-diaza-bicyclo[13.2.2]nonadeca-1(18),15(19),16-trien-13-yl)-methanesulfonamide]

IC50 (calpain II (m calpain); [3]): > 50 µM
Compound: CC(C)C[C@@H]1NC(=O)[C@@H](NC(=O)OCc2ccccc2)Cc2ccc(cc2)OCCCC[C@@H](CNC2CC2)NC1=O [Compound 81, ((7S,10S,13S)-7-Cyclopropylaminomethyl-10-isobutyl-9,12-dioxo-2-oxa-8,11-diaza-bicyclo[13.2.2]nonadeca-1(18),15(19),16-trien-13-yl)-carbamic acid benzyl ester]

IC50 (calpain II (m calpain); [3]): 0.93 µM
Compound: CC(C)C[C@@H]1NC(=O)[C@@H](NS(=O)(=O)c2ccc(F)cc2)Cc2ccc(cc2)OCCCC[C@@H](CO)NC1=O [Compound 16, 4-Fluoro-N-((7S,10S,13S)-7-hydroxymethyl-10-isobutyl-9,12-dioxo-2-oxa-8,11-diaza-bicyclo-[13.2.2]nonadeca-1(18),15(19),16-trien-13-yl)-benzenesulfonamide]

IC50 (calpain II (m calpain); [3]): 0.28 µM
Compound: CC(C)[C@@H]1NC(=O)[C@@H](NS(=O)(=O)c2ccc(F)cc2)Cc2ccc(cc2)OCCCC[C@@H](C=O)NC1=O [Compound 54, 4-Fluoro-N-((7S,10S,135)-7-formyl-10-isopropyl-9,12-dioxo-2-oxa-8,11-diaza-bicyclo[13.2.2]nonadeca-1(18),15(19),16-trien-13-yl)-benzenesulfonamide]
